The record followed here is patent US20130344026A1, “Dimeric Smac Mimetics” (priority 2009, published 2013).

SMILES strings stand for the structures. Where two headings read alike, the source gives them in different places.

The test relates to PANC-1 cells. In words: cell viability assay in PANC-1 cells (compound alone, + 100 ng/ml TNFa, + 300 ng/ml TRAIL). The test is classed as cell-based.
[1] abbreviates: Homo sapiens, PANC-1, compound alone, Tables 6-10, read-out: IC50 (μM) in cell viability assay in PANC-1 cells: Compound alone.
Setting [2] is: with 100 ng/ml TNFa, Tables 6-10, read-out: IC50 (μM) in cell viability assay in PANC-1 cells: Compound + 100 ng/ml TNFa.
Where [3] appears, read: with 300 ng/ml TRAIL, Tables 6-10, read-out: IC50 (μM) in cell viability assay in PANC-1 cells: Compound + 300 ng/ml TRAIL.
The mark [4] stands for this setting: compound alone, Tables 6-10, read-out: IC50 (μM) in cell viability assay in PANC-1 cells: Compound alone.
[5] abbreviates: Homo sapiens, PANC-1, compound alone, Tables 15-18, read-out: IC50 (uM) in cell viability assay in PANC-1 cells: Cmpnd alone.
The mark [6] stands for this setting: with 100 ng/ml TNFa, Tables 15-18, read-out: IC50 (uM) in cell viability assay in PANC-1 cells: Cmpnd + 100 ng/ml TNFa.
Setting [7] is: with 300 ng/ml TRAIL, Tables 15-18, read-out: IC50 (uM) in cell viability assay in PANC-1 cells: Cmpnd + 300 ng/ml TRAIL.
[8] abbreviates: Homo sapiens, PANC-1 cells, compound alone, read-out: IC50 (uM) in cell viability assay in PANC-1 cells, Cmpnd alone.
Where [9] appears, read: PANC-1 cells, + 100 ng/ml TNFa, read-out: IC50 (uM) in cell viability assay in PANC-1 cells, Cmpnd + 100 ng/ml TNFa.
[10] abbreviates: PANC-1 cells, + 300 ng/ml TRAIL, read-out: IC50 (uM) in cell viability assay in PANC-1 cells, Cmpnd + 300 ng/ml TRAIL.

As to `CN[C@@H](C)C(=O)N[C@H](C(=O)N1CCC[C@H]1CN1CCC[C@H]1C(c1ccccc1)c1ccccc1)[C@@H](C)OCCCCCCO[C@H](C)[C@H](NC(=O)[C@H](C)NC)C(=O)N1CCC[C@H]1CN1CCC[C@H]1C(c1ccccc1)c1ccccc1` [Compound 83], the IC50 by setting is: under setting [1], greater than 1 µM; under setting [2], 0.494 µM; under setting [3], 0.437 µM.

Take `CN[C@@H](C)C(=O)N[C@H](C(=O)N1C[C@@H](NC(=O)c2cccc(C(=O)N[C@H]3C[C@@H](C(=O)NC4CCCc5c(OC)cccc54)N(C(=O)[C@@H](NC(=O)[C@H](C)NC)C(C)(C)C)C3)c2)C[C@H]1C(=O)NC1CCCc2c(OC)cccc21)C(C)(C)C` (single isomer, unassigned) [Compound 47]: the IC50 under setting [4] was greater than 1 µM, the IC50 under setting [2] was 0.012 µM and the IC50 under setting [3] was determined as 0.011 µM.

For the compound `CN[C@@H](C)C(=O)N[C@@H](CCCCCC[C@H](NC(=O)[C@H](C)NC)C(=O)N1CC[C@H]1C(=O)N[C@@H]1CCCc2ccccc21)C(=O)N1CC[C@H]1C(=O)N[C@@H]1CCCc2ccccc21` [Compound 102], the IC50 runs as follows: under setting [1], greater than 1 µM; under setting [2], 0.064 µM; under setting [3], 0.069 µM.

`CN[C@@H](C)C(=O)N[C@H](C(=O)N[C@@H](CCNC(=O)c1cc(N)cc(C(=O)N[C@H]2C[C@@H](C(=O)N[C@@H]3CCCc4ccccc43)N(C(=O)[C@@H](NC(=O)[C@H](C)NC)C(C)(C)C)C2)c1)C(=O)N[C@H](C)C(C)C)C(C)C` [Compound 180]: the IC50 under setting [1] was greater than 1 µM, the IC50 under setting [2] was found to be 0.124 µM and the IC50 under setting [3] is 0.201 µM.

With `CN[C@@H](C)C(=O)N[C@H](C(=O)N1C[C@@H](NC(=O)c2cccc(C(=O)N[C@H]3C[C@@H](C(=O)N[C@@H]4CCCc5c(O)cccc54)N(C(=O)[C@@H](NC(=O)[C@H](C)NC)C(C)(C)C)C3)c2)C[C@H]1C(=O)N[C@@H]1CCCc2c(O)cccc21)C(C)(C)C` (single isomer, unassigned) [Compound 60], the IC50 was greater than 1 µM under setting [1], 0.044 µM under setting [2] and 0.049 µM under setting [3].

On to `CN[C@@H](C)C(=O)N[C@H](C(=O)N1C[C@H](NC(=O)c2ccc(CCc3ccc(C(=O)N[C@@H]4C[C@@H](C(=O)N[C@@H]5CCCc6ccccc65)N(C(=O)[C@@H](NC(=O)[C@H](C)NC)C(C)(C)C)C4)cc3)cc2)C[C@H]1C(=O)N[C@@H]1CCCc2ccccc21)C(C)(C)C` [Compound P2-46], for which the IC50 under setting [5] was greater than 1 µM, the IC50 under setting [6] was found to be 0.0007 µM and the IC50 under setting [7] came to 0.0009 µM.

On to `CN[C@@H](C)C(=O)N[C@H](C(=O)N1C[C@@H](NC(=O)c2cccc(C(=O)N[C@H]3C[C@@H](C(=O)NC4CCCc5cc(F)ccc54)N(C(=O)[C@@H](NC(=O)[C@H](C)NC)C(C)(C)C)C3)c2)C[C@H]1C(=O)NC1CCCc2cc(F)ccc21)C(C)(C)C` (single isomer, unassigned) [Compound 72], for which the IC50 under setting [1] is greater than 1 µM, the IC50 under setting [2] came out at 0.0018 µM and the IC50 under setting [3] was found to be 0.0033 µM.

For the compound `CN[C@@H](C)C(=O)N[C@H](C(=O)N1C[C@@H](NC(=O)C23CC4CC(C2)CC(C(=O)N[C@H]2C[C@@H](C(=O)N[C@H](C)c5ccccc5)N(C(=O)[C@@H](NC(=O)[C@H](C)NC)C(C)(C)C)C2)(C4)C3)C[C@H]1C(=O)N[C@H](C)c1ccccc1)C(C)(C)C` [Compound P3-101], the IC50 runs as follows: under setting [8], greater than 1 µM; under setting [9], 0.001 µM; under setting [10], 0.001 µM.

Consider `CCCC[C@@H](C)NC(=O)c1cc(C(=O)N[C@H]2C[C@@H](C(=O)N[C@@H]3CCCc4ccccc43)N(C(=O)[C@@H](NC(=O)[C@H](C)NC)C(C)(C)C)C2)cc(C(=O)N[C@H]2C[C@@H](C(=O)N[C@@H]3CCCc4ccccc43)N(C(=O)[C@@H](NC(=O)[C@H](C)NC)C(C)(C)C)C2)c1` [Compound 128], for which the IC50 is, setting by setting: under setting [1], greater than 1 µM; under setting [2], 0.01 µM; under setting [3], 0.014 µM.

Take `CN[C@@H](C)C(=O)N[C@@H](CCCCCC[C@H](NC(=O)[C@H](C)NC)C(=O)N1Cc2ccccc2C[C@H]1C(=O)N[C@H](C)c1ccccc1)C(=O)N1Cc2ccccc2C[C@H]1C(=O)N[C@H](C)c1ccccc1` [Compound 96]: the IC50 by setting is: under setting [1], greater than 1 µM; under setting [2], 0.211 µM; under setting [3], 0.417 µM.

Take `CN[C@@H](C)C(=O)N[C@H](C(=O)N1CCC[C@H]1C(=O)N[C@H]1c2ccccc2C[C@@H]1OC(=O)CCCC(=O)O[C@H]1Cc2ccccc2[C@@H]1NC(=O)[C@@H]1CCCN1C(=O)[C@@H](NC(=O)[C@H](C)NC)C(C)(C)C)C(C)(C)C` [Compound 118]: the IC50 under setting [1] was greater than 1 µM, the IC50 under setting [2] was determined as 0.0007 µM and the IC50 under setting [3] was found to be 0.0008 µM.

Take `CN[C@@H](C)C(=O)N[C@H](C(=O)N1C[C@@H](NC(=O)c2cccc(C(=O)N[C@H]3C[C@@H](C(=O)NC4CCSc5ccccc54)N(C(=O)[C@@H](NC(=O)[C@H](C)NC)C(C)(C)C)C3)c2)C[C@H]1C(=O)NC1CCSc2ccccc21)C(C)(C)C` (single isomer, unassigned) [Compound 68]: the IC50 was greater than 1 µM under setting [4], 0.029 µM under setting [2] and 0.019 µM under setting [3].

On to `CN[C@@H](C)C(=O)N[C@@H](CCCCCC[C@H](NC(=O)[C@H](C)NC)C(=O)N1c2ccccc2C[C@H]1C(=O)N[C@@H]1CCCc2ccccc21)C(=O)N1c2ccccc2C[C@H]1C(=O)N[C@@H]1CCCc2ccccc21` [Compound 93], for which the IC50 is, setting by setting: under setting [1], greater than 1 µM; under setting [2], 0.299 µM; under setting [3], 0.327 µM.

Consider `CN[C@@H](C)C(=O)N[C@@H](CC(=O)NCC#CC#CCNC(=O)C[C@H](NC(=O)[C@H](C)NC)C(=O)N1CCC[C@H]1C(=O)N[C@@H]1CCCc2ccccc21)C(=O)N1CCC[C@H]1C(=O)N[C@@H]1CCCc2ccccc21` [Compound P2-41], for which the IC50 is, setting by setting: under setting [5], greater than 1 µM; under setting [6], 0.094 µM; under setting [7], 0.092 µM.

As for `CN[C@@H](C)C(=O)N[C@@H](CCCCCC[C@H](NC(=O)[C@H](C)NC)C(=O)N1CCC[C@H]1CNC(=O)c1ccccc1O)C(=O)N1CCC[C@H]1CNC(=O)c1ccccc1O` [Compound 20], the IC50 reads like this: under setting [1], greater than 1 µM; under setting [2], greater than 1 µM; under setting [3], greater than 1 µM.

As for `CN[C@@H](C)C(=O)N[C@H](C(=O)N1C[C@@H](NC(=O)c2ccc(C(=O)N[C@H]3C[C@@H](C(=O)N[C@@H]4CCCc5ccccc54)N(C(=O)[C@@H](NC(=O)[C@H](C)NC)C(C)(C)C)C3)nc2)C[C@H]1C(=O)N[C@@H]1CCCc2ccccc21)C(C)(C)C` [Compound P3-94], the IC50 by setting is: under setting [8], greater than 1 µM; under setting [9], 0.003 µM; under setting [10], 0.006 µM.

With `CN[C@@H](C)C(=O)N[C@H](C(=O)N1CCCC1C(=O)N[C@H](COCC#CC#CCOC[C@@H](NC(=O)[C@H](C)NC(=O)[C@H](NC(=O)[C@@H](CO)NC)C1CCCCC1)C(C)C)C1CCCCC1)C(C)(C)C` (stereo partly drawn) [Compound H-8], the IC50 runs as follows: under setting [5], greater than 1 µM; under setting [6], 0.017 µM; under setting [7], 0.033 µM.

Turning to `CN[C@@H](C)C(=O)N[C@H](C(=O)N1C[C@@H](NC(=O)C2CCCC(C(=O)N[C@H]3C[C@@H](C(=O)N[C@H](C)c4ccccc4)N(C(=O)[C@@H](NC(=O)[C@H](C)NC)C(C)(C)C)C3)C2)C[C@H]1C(=O)N[C@H](C)c1ccccc1)C(C)(C)C` (stereo partly drawn) [Compound P3-96], the IC50 was greater than 1 µM under setting [8], 0.055 µM under setting [9] and 0.006 µM under setting [10].
